Results on one molecule are retold here after ChEMBL document CHEMBL5335798 (J Med Chem, 2024).

The series in a line: Permeability of compound at pH 7.4 at 200 uM measured after 5 hrs by PAMPA assay. In general terms: In PAMPA a lipid-coated filter parts donor from acceptor wells.

Each structure is given as a SMILES string.

One may read the Papp as the rate of passage across a membrane or cell layer, normalised by area and donor concentration. Molecule `CCC([Se]c1ccc2ccccc2c1)c1nc(N)nc(N2CCN(C)CC2)n1` (stereo unspecified) showed an apparent permeability coefficient (Papp) at 5 h, 200 µM of 10.5 ×10⁻⁶ cm/s.
